From patent publication US20130071854A1, “METHODS FOR THE IDENTIFICATION AND CHARACTERIZATION OF HDAC INTERACTING COMPOUNDS” (priority 2009, published 2013)
Where two headings read alike, the source gives them in different places.

What was measured:
SAP30 = test: Competition binding assay in cell lysate, affinity matrix, MS (Sin3 interactor); set-up: species or system human; conditions: K-562 cell lysate
RBBP4 = conditions: K-562 cell lysate
NOSIP = biological target: T1, NOSIP (Homo sapiens, UniProt Q9Y314); test: Competition binding assay in cell lysate, affinity matrix, MS
T1 construct: endogenous in cells
T1 sequence (Q9Y314 whole entry): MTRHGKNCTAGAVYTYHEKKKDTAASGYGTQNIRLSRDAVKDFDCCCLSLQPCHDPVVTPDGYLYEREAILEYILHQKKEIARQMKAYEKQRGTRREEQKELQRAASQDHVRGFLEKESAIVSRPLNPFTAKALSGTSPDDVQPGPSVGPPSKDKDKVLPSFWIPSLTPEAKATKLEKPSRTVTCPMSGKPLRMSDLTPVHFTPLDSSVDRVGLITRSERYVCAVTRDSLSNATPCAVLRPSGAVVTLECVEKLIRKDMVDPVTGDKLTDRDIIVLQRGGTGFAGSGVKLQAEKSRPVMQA

ISOC2 = biological target: T2, ISOC2 (Homo sapiens, UniProt Q96AB3); test: as above
T2 construct: endogenous in cells
T2 sequence (Q96AB3 whole entry): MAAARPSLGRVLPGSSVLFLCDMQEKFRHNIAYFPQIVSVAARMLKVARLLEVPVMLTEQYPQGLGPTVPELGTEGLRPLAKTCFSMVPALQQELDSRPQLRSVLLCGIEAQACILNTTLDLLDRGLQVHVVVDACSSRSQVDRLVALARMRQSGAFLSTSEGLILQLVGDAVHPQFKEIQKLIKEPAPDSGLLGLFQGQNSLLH

TRERF1 = format: binding, human; conditions: protein TRERF1; ELSA (ELM-SANT) domain proteins; read-out: Kd^app TRERF1
WDR5 = biological target: T3, WDR5 (Homo sapiens, UniProt P61964); test: Competition binding assay in cell lysate, affinity matrix, MS
T3 construct: endogenous in cells

APOBEC3C = biological target: T4, APOBEC3C (Homo sapiens, UniProt Q9NRW3); test: as above
T4 construct: endogenous in cells
T4 sequence (Q9NRW3 whole entry): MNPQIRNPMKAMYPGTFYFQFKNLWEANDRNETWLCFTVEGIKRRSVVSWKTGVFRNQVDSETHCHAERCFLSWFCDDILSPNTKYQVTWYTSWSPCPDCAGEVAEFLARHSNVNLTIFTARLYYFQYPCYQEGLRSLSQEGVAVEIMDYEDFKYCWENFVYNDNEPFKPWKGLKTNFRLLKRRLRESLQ

IFNα secretion = IFNα secretion assay in peripheral blood mononuclear cells stimulated with ODN2216; conditions: Homo sapiens, PBMC, read-out: EC50 inhibition of secretion of IFNα
[1] = biological target: MiDAC complex (HDAC1/2, DNTTIP1, CDYL, MIDEAS) (Homo sapiens, UniProt Q13547+Q92769); test: Chemoproteomic binding profiling, K562 cell extract, SAHA/ITF2357 probe matrix (Kd app); set-up: Kd^app MIDEAS; other: protein MIDEAS; MiDAC complex; Kd^app DNTTIP1; other: protein DNTTIP1
[2] = system: histone acetylation, K562 cells; test: Mapping of histone acetylation by LC-MS/MS of K562 cells treated with HDACi; format: cell-based, human; conditions: K562 cells treated 6 hours, isobaric tagging and MS/MS

## Nc1ccccc1NC(=O)c1ccc(CNC(=O)OCc2cccnc2)cc1 [MS-275]
SAP30
  IC50: 300 µM
RBBP4
  IC50: 300 µM
NOSIP
  IC50: ≥ 300 µM
ISOC2
  IC50: ≥ 300 µM
TRERF1
  Kd: > 300 µM
WDR5
  IC50: ≥ 300 µM
APOBEC3C
  IC50: ≥ 300 µM

## CCCCOc1ccc(CC(=O)NO)cc1 [bufexamac]
IFNα secretion
  EC50: 8.9 µM
[1]; protein DNTTIP1, read-out: Kd^app DNTTIP1
  Kd: 418 µM
[1]; protein MIDEAS, read-out: Kd^app MIDEAS
  Kd: 476 µM

## CCCC(CCC)C(=O)O [valproate, valproic acid]
[2]
  abundance of acetylated histone peptides (in words): more selective effect
